Data on 1 compound can be found in patent US11160784B1, “Treatment of brain metastases using organonitro compound combination therapy” (EpicentRx, Inc., priority 2015, dated 2021).

Structures are written as SMILES.

Series [1] has as its system brain metastases. Put plainly: Treatment of two human patients suffering from brain metastases with ABDNAZ in combination with whole brain radiation therapy. The class given is in vivo. The protocol: Two human patients suffering from brain metastases were treated according to the protocol described in Part I below using ABDNAZ in combination with whole brain radiation therapy.
(§1) ABDNAZ was administered intravenously in a formulation containing ABDNAZ, polyethylene glycol having a number-average molecular weight of 400 g/mol (PEG-400), water for injection, and NN-dimethylacetamide. A single dosage of ABDNAZ was 5 mg/m^2. During radiation therapy, (i) subjects were treated in the supine position, (ii) adequate immobilization and reproducibility of position was ensured using thermoplastic mask, (iii) the target volume included the whole brain, per the treating radiation oncologist, (iv) the lens of the eye was excluded from the beam using shielding or by beam collimation, (v) the dose of radiation is specified at central axis at mid-plane, (vi) whole brain radiotherapy was delivered with a daily fraction size of 3.0 Gy per fraction given 5 days a week for a total dose of 30 Gy, and (vii) radiation therapy was delivered using photon beam energies of 6 MV and an opposed lateral technique, where all fields are treated during each treatment session.

Series [2] deals with brain metastases. Put plainly: Treatment of thirteen additional human patients suffering from brain metastases with ABDNAZ in combination with whole brain radiation therapy. The class given is in vivo. Particulars: ABDNAZ 1.25 to 8.4 mg/m^2 IV + WBRT 30 Gy. The protocol:
Thirteen human patients suffering from brain metastases were treated according to the protocol described in Part I below using ABDNAZ in combination with whole brain radiation therapy.
as §1, with “intravenously at a dosage” for “intravenously”, “the range” for “a formulation containing ABDNAZ, polyethylene glycol having a number-average molecular weight”, “1.25 mg/m^2 to 8.4” for “400 g/mol (PEG-400), water for injection, and NN-dimethylacetamide. A single dosage of ABDNAZ was 5”

In series [3] the test system is SCCVII tumor. Put plainly: Impact of time between administration of ABDNAZ and radiation therapy on tumor growth delay. It is filed as in vivo, mice. Particulars: ABDNAZ 15 mg/kg IP single dose at -24 h, -2 h, concurrent, +2 h or +24 h; single local 7 Gy; FIG. 1. The protocol:
The impact of the time interval between administration of ABDNAZ and radiation therapy on tumor growth delay was evaluated in mice having a SCCVII tumor. Experimental procedures and results are described below.
Mice having a SCCVII tumor were treated with radiation therapy and ABDNAZ, where the length of time between administration of radiation therapy and ABDNAZ was varied. Radiation therapy was administered as a single local dose of 7 Gy of radiation. ABDNAZ was dosed in 5 groups of mice at 15 mg/kg IP as a single dose at one of the following time points: 24 hours prior to radiation therapy, 2 hours prior to radiation therapy, concurrent with radiation therapy, 2 hours after radiation therapy, or 24 hours after radiation therapy.

Where [4] appears, read: first patient, four weeks after completion of ABDNAZ + WBRT.

For the compound `O=C(CBr)N1CC([N+](=O)[O-])([N+](=O)[O-])C1` [ABDNAZ], in series [1] (first patient (melanoma brain metastases), 24 hours after first dose of ABDNAZ 5 mg/m^2 IV), the “k^trans by dynamic contrast-enhanced brain MRI” value is on record as “decrease in k^trans in 4 of 5 lesions”. The “size of new lesion discovered” value in series [1] (first patient, 4 months after completion of ABDNAZ + WBRT, possibly seeding from systemic disease) is 5 mm. Moreover, the tolerability entry in series [1] (first patient, ABDNAZ 5 mg/m^2 IV + WBRT 30 Gy) is “well-tolerated with mild, transient infusion site pain, and without any signs of systemic or neurologic toxicity”. In addition, the visual symptoms entry in series [1] (first patient, by the end of treatment with ABDNAZ + WBRT) is listed as “improved visual symptoms with near resolution of visual field-deficit”. The “edema associated with lesions” value in series [1] (first patient, four months after completion of ABDNAZ + WBRT) is “decrease in associated edema of all lesions”. In addition, in series [1] (setting [4]), the “physical function, Barthel ADL index” value was “unchanged from baseline”; the “size of brain lesions by contrasted brain MRI” value was “decrease in the size of the largest right and left occipital masses”. The visual symptoms result in series [1] (first patient, within 48 hours of receiving the first dose of radiation therapy, ABDNAZ 5 mg/m^2 IV + WBRT) is “began to improve”. Moreover, in series [1] (second patient, 3 months after end of ABDNAZ + WBRT), the “number of sub-centimeter metastases with complete disappearance” value was 3. Also, in series [1] (second patient, at least 18 brain metastases at baseline, ABDNAZ + WBRT), the “lesion response on serial re-imaging” value was “response in all 18 visualized lesions”. For the same compound, the infusion site pain entry in series [1] (second patient, during treatment) is “no significant infusion site pain”. In series [1] (second patient, largest evaluable lesion, 24 hours after first administration of ABDNAZ), the “k^trans by DCE-MRI” value was “slight reduction in k^trans”. For the same compound, in series [1] (second patient, one month after end of ABDNAZ + WBRT), the “physical function, Barthel ADL index” value is on record as “unchanged from baseline”. For the same compound, in series [2], the adverse events result is “No adverse events were observed”; the “patients with decrease of at least 30% in sum of longest diameters of target lesions and absolute decrease of at least 5 mm in at least one target lesion” value was “Approximately 50%”. The “tumor growth delay versus time interval between ABDNAZ and radiation therapy” value in series [3] is on record as “Maximum tumor growth delay occurred when ABDNAZ was administered minutes before or concomitant with radiation therapy”.
